# US20060084789A1, “Immunotherapeutic and immunoprphylactic reagents” (priority 2002, published 2006)
# Columns and labels:
# Type in all cases: cell-based, human
# RGP-specific TCL = test: TCL proliferation assay (3H-thymidine incorporation, stimulation index); details: for Proliferative response, stimulation index: peptides 10 μg/ml
# Procedure: Generation of Short-Term RGP-Specific TCL
# PBMC were cultured in 24-well plates (Costar, Mass., USA) at 2.5×10^6 cells/well with RGP extract at a concentration of 25 or 50 μg/ml in RPMI 1640 medium (Gibco BRL, NY, USA) supplemented with 2 mM GlutaMAX I (Gibco BRL), 0.05 mg/ml gentamicin (David Bull Laboratories, Mulgrave, Victoria, Australia) and 5% heat-inactivated hunan AB^+ serum (Sigma, Mo., USA) for 7 days at 37° C. in a 5% CO2 humidified incubator. At day 7, cells were washed once and restimulated in 24-well plates at 5×10^5 cells/well width 25 or 50 μg/ml of RGP extract in the presence of 5×10^5 cells/well irradiated (3000 rads) autologous PBMC as a source of antigen presenting cells (APC). At day 2 following restimulation, 10 U/ml of Lymphocult T-LF (LC; Biotest, Germany) was added as a source of IL-2 and at day 4, 1 ml of culture medium was removed and replaced with fresh medium and 10 U/ml of LC. […] In all experiments T cells were rested for 6 to 7 days after the last addition of antigen and APC before testing.
# T cells (5×10^4/well) were cultured in 96-well U bottom plates with either RGP extract at concentrations ranging from 25 to 200 μg/ml, purified Lol p 1 (0.12 to 2 μg/ml) or Lol p 5 (0.1 to 10 μg/ml), or Lol p 1 or Lol p 5 peptides (10 μg/ml), or medium alone (to determine background levels of proliferation), in the presence of washed autologous irradiated (3000 rads) PBMC (5×10^4/well). […] Cultures were incubated for 3 days, pulsed for the last 16 hours with ^3H-thymidine (1 μCi/well) and harvested onto glass fibre filters. ^3H-thymidine incorporation was measured by liquid scintillation spectroscopy and the mean counts per minute (cpm) for triplicate cultures was determined. Responses were considered positive if the stimulation index (SI, cpm of antigen-stimulated T cells divided by cpm of unstimulated T cells) was ≧2.5. Where several concentrations of allergen were tested (i.e., RGP, Lol p 1 and Lol p 5), values corresponding to the highest proliferation are shown.
# [1] = test system: IFN-γ production by RGP-specific TCL; test: IFN-γ detection in culture supernatants by sandwich ELISA; details: supernatant at 48 h, UD undetectable, limit of detection 2 pg/ml
# Procedure: (§1) Cytokine Detection in Culture Supernatants
# (§2) Supernatants of triplicate cultures were harvested and pooled from T cell proliferation assay cultures at 48 hours for the detection of IL-5 and IFN-γ production by sandwich ELISA. Briefly white Maxisorp (NUNC, Roskilde, Denmark) ELISA plates were coated with capture mAb (anti-IL-5, Pharmingen, San Diego, Calif., USA; anti-IFN-γ, Endogen, Woburn, Mass. USA) overnight at 4° C. Plates were then washed and wells blocked with 1% Bovine Serum Albumin/PBS for 1 hour at room temperature. Following washing, test samples (neat) and serial dilutions of recombinant human IL-5 (Pharmingen, USA) or IFN-γ (Endogen, USA) (for the construction of standard curves) were added and incubated overnight at 4° C. Following washing, plates were incubated with biotinylated detecting mAb (anti-IL-5, Pharmingen, USA; […], Endogen, USA) for 1 hour at room temperature. Plates were then washed and incubated with streptavidin-peroxidase (Amersham, Piscataway, N.J., USA) for 30 minutes at room temperature. Following washing, a chemiluminescent substrate (Du Pont, Wilmington, Del., USA) was added to each well and plates read in a Lumicount microplate Glow Luminometer (Packard Instrument Company, Meriden, Conn., USA), 0.5 seconds/well, automatic sensitivity setting. Standard curve construction and determination of test sample cytokine levels were performed using Packard I-smart software. The limits of detection for IL-5 and IFN-γ were 10 pg/ml and 2 pg/ml respectively.
# [2] = test system: IL-5 production by RGP-specific TCL; test: IL-5 detection in culture supernatants by sandwich ELISA; details: supernatant at 48 h, UD undetectable, limit of detection 10 pg/ml
# Procedure: as §1, §2
# [3] = Subject 4 TCL, Lol p 1 series (Table 3), RGP and Lol p 1 maximal response
# [4] = Subject 15 TCL, Lol p 1 series (Table 3), RGP and Lol p 1 maximal response
# [5] = Subject 15 TCL, Lol p 1 peptides
# [6] = Subject 23 TCL, Lol p 1 peptides
# [7] = Subject 7 TCL, Lol p 1 series (Table 3), RGP and Lol p 1 maximal response
# [8] = Subject 20 TCL, Lol p 1 peptides
# [9] = Subject 2 TCL, Lol p 5 peptides
substance,measurement,setting,value
KGKDKWIELKESWGAVWRID (Lolium perenne) [Lol p 1 peptide 181-200],"Proliferative response, stimulation index",RGP-specific TCL; [3],4.5
same,"Proliferative response, stimulation index","RGP-specific TCL; Subject 10 TCL, Lol p 1 series (Table 3), RGP and Lol p 1 maximal response",2.6
same,"Proliferative response, stimulation index","RGP-specific TCL; Subject 11 TCL, Lol p 1 series (Table 3), RGP and Lol p 1 maximal response",7.3
same,"Proliferative response, stimulation index",RGP-specific TCL; [4],5.8
same,"Proliferative response, stimulation index","RGP-specific TCL; Subject 18 TCL, Lol p 1 series (Table 3), RGP and Lol p 1 maximal response",2.6
same,"Proliferative response, stimulation index","RGP-specific TCL; Subject 23 TCL, Lol p 1 series (Table 3), RGP and Lol p 1 maximal response",6.2
same,"IFN-γ, proliferation inducing peptides",[1]; [5],56.6 pg/mL
same,"IFN-γ, proliferation inducing peptides",[1]; [6],11.7 pg/mL
same,"IL-5, proliferation inducing peptides",[2]; [5],13.3 pg/mL
same,"IL-5, proliferation inducing peptides",[2]; [6],25.1 pg/mL
LDAKSTWYGKPTGAGPKDNG (Lolium perenne) [Lol p 1 peptide 19-38],responder frequency among Lol p 1 peptide-responsive donors,"RGP-specific TCL; Lol p 1 peptide-responsive RGP-specific TCL, SI ≥2.5 positive, listed as Lol p 1 (19-3 8)",46%
same,"Proliferative response, stimulation index","RGP-specific TCL; Subject 2 TCL, Lol p 1 series (Table 3), RGP and Lol p 1 maximal response",5.2
same,"Proliferative response, stimulation index","RGP-specific TCL; Subject 3 TCL, Lol p 1 series (Table 3), RGP and Lol p 1 maximal response",3.3
same,"Proliferative response, stimulation index",RGP-specific TCL; [3],12.3
same,"Proliferative response, stimulation index","RGP-specific TCL; Subject 6 TCL, Lol p 1 series (Table 3), RGP and Lol p 1 maximal response",2.7
same,"Proliferative response, stimulation index",RGP-specific TCL; [7],3.2
same,"Proliferative response, stimulation index","RGP-specific TCL; Subject 8 TCL, Lol p 1 series (Table 3), RGP and Lol p 1 maximal response",3.8
same,"Proliferative response, stimulation index","RGP-specific TCL; Subject 12 TCL, Lol p 1 series (Table 3), RGP and Lol p 1 maximal response",7.5
same,"Proliferative response, stimulation index",RGP-specific TCL; [4],10.5
same,"Proliferative response, stimulation index","RGP-specific TCL; Subject 17 TCL, Lol p 1 series (Table 3), RGP and Lol p 1 maximal response",5.3
same,"Proliferative response, stimulation index","RGP-specific TCL; Subject 19 TCL, Lol p 1 series (Table 3), RGP and Lol p 1 maximal response",10.3
same,"Proliferative response, stimulation index","RGP-specific TCL; Subject 21 TCL, Lol p 1 series (Table 3), RGP and Lol p 1 maximal response",3.8
same,"IFN-γ, proliferation inducing peptides","[1]; Subject 3 TCL, Lol p 1 peptides",20.9 pg/mL
same,"IFN-γ, proliferation inducing peptides",[1]; [5],204.1 pg/mL
same,"IFN-γ, proliferation inducing peptides","[1]; Subject 19 TCL, Lol p 1 peptides",2.8 pg/mL
same,"IL-5, proliferation inducing peptides",[2]; [5],182.7 pg/mL
"Lol p 1 peptide 37-56: synthetic 20-mer, amino acids 37-56 of Lol p 1A (SEQ ID NO:1) (NCGACGYKDVDKAPFNGMTG; Lolium perenne)","Proliferative response, stimulation index",RGP-specific TCL; [3],2.5
same,"Proliferative response, stimulation index","RGP-specific TCL; Subject 20 TCL, Lol p 1 series (Table 3), RGP and Lol p 1 maximal response",2.6
same,"IFN-γ, proliferation inducing peptides",[1]; [8],11.1 pg/mL
same,"IL-5, proliferation inducing peptides",[2]; [8],46.9 pg/mL
"Lol p 1 peptide 64-83: synthetic 20-mer, amino acids 64-83 of Lol p 1A (SEQ ID NO:1) (KDGRGCGSCFEIKCTKPESC; Lolium perenne)","Proliferative response, stimulation index","RGP-specific TCL; Subject 1 TCL, Lol p 1 series (Table 3), RGP and Lol p 1 maximal response",7.2
same,"Proliferative response, stimulation index",RGP-specific TCL; [7],3.5
same,"Proliferative response, stimulation index",RGP-specific TCL; [4],3.5
same,"IFN-γ, proliferation inducing peptides",[1]; [5],38.8 pg/mL
same,"IL-5, proliferation inducing peptides",[2]; [5],26.5 pg/mL
"Lol p 5 peptide 190-209: synthetic 20-mer, amino acids 190-209 of Lol p 5A (SEQ ID NO:2) (GAYETYKFIPSLEAAVKQAY; Lolium perenne)","Proliferative response, stimulation index","RGP-specific TCL; Subject 2 TCL, Lol p 5 series (Table 4), RGP and Lol p 5 maximal response",3.0
same,"Proliferative response, stimulation index","RGP-specific TCL; Subject 4 TCL, Lol p 5 series (Table 4), RGP and Lol p 5 maximal response",5.1
same,"Proliferative response, stimulation index","RGP-specific TCL; Subject 11 TCL, Lol p 5 series (Table 4), RGP and Lol p 5 maximal response",4.0
same,"Proliferative response, stimulation index","RGP-specific TCL; Subject 29 TCL, Lol p 5 series (Table 4), RGP and Lol p 5 maximal response",3.1
same,"IFN-γ, proliferation inducing peptides",[1]; [9],7.8 pg/mL
same,"IL-5, proliferation inducing peptides",[2]; [9],518.1 pg/mL
